target: Recombinant human JAK1 catalytic domain (Homo sapiens (Human), UniProt P23458); test: JAK1 kinase assay (Z'-LYTE Tyr 6 Peptide); format: biochemical; details: JAK1 kinase assay, 0.3 uM concentration; read-out: inhibition percentage (IR %)
Experimental: JAK1/2/3 kinase assay are performed in vitro using Kit-Tyr 6 Peptide (Invitrogen, Cat. No. PV4122). TYK2 kinase assay are performed in vitro using Z′-LYTE™ Kinase Assay Kit-Tyr 3 Peptide (Invitrogen, Cat. No. PV3192). […] All compounds are initially tested at 8 different concentrations (1 μM down to 0.0003 μM) using a 1:3 serial dilution scheme.

Chain of Recombinant human JAK1 catalytic domain (P23458 875-1153): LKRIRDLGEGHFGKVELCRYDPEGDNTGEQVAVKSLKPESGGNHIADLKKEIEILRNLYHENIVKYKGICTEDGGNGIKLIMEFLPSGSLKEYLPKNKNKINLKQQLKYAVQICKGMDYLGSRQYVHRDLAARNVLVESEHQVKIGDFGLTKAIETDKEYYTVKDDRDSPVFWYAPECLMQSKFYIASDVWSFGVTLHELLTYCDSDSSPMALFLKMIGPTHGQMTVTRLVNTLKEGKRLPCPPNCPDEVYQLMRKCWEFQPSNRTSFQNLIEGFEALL

Structure (SMILES)	inhibition at 0.3 µM [%]
CN(c1ncc(C#N)s1)[C@@H]1CCN(c2ncnc3[nH]ccc23)C1 [Compound 95]	50 to 100
N#Cc1cnc(N[C@@H]2CCN(c3ncnc4[nH]ccc34)C2)c([N+](=O)[O-])c1 [Compound 97]	50 to 100
Cc1cc(C#N)cnc1N(C)[C@@H]1CCN(c2ncnc3[nH]ccc23)C1 [Compound 100]	20 to 50
Cc1ccc(N(C)[C@@H]2CCN(c3ncnc4[nH]ccc34)C2)nc1 [Compound 101]	50 to 100
CN(c1ccc(C#N)cn1)[C@H]1CCN(c2ncnc3[nH]ccc23)C1 [Compound 102]	50 to 100
CN(c1ccc(C#N)cc1)[C@@H]1CCN(c2ncnc3[nH]ccc23)C1 [Compound 104]	50 to 100
CN(c1ccc(C#N)cc1[N+](=O)[O-])[C@@H]1CCN(c2ncnc3[nH]ccc23)C1 [Compound 107]	50 to 100
CN(c1c(F)cc(C#N)cc1F)[C@@H]1CCN(c2ncnc3[nH]ccc23)C1 [Compound 108]	50 to 100
CN(c1ccc(C#N)cc1Cl)[C@@H]1CCN(c2ncnc3[nH]ccc23)C1 [Compound 112]	50 to 100
CN(c1c(F)c(F)c(C#N)c(F)c1F)[C@@H]1CCN(c2ncnc3[nH]ccc23)C1 [Compound 117]	50 to 100
CN(c1cccc(C#N)c1)[C@@H]1CCN(c2ncnc3[nH]ccc23)C1 [Compound 119, (R)-3-((1-(7H-pyrrolo[2,3-d]pyrimidin-4-yl)pyrrolidin-3-yl)(methyl)amino)benzonitrile]	50 to 100

More lines, now with the values ahead:

inhibition at 0.3 µM [%]	Structure (SMILES)
50 to 100	CN(c1ncc(Br)cc1C#N)[C@@H]1CCN(c2ncnc3[nH]ccc23)C1 [Compound 89]
50 to 100	CN(c1ccc(C#N)c(Cl)n1)[C@@H]1CCN(c2ncnc3[nH]ccc23)C1 [Compound 90]
50 to 100	CN(c1cccc(C#N)n1)[C@@H]1CCN(c2ncnc3[nH]ccc23)C1 [Compound 91]
50 to 100	CN(c1ccc(C#N)cn1)[C@@H]1CCN(c2ccnc3[nH]ccc23)C1 [Compound 92]
50 to 100	CN(c1ncc(Br)cn1)[C@@H]1CCN(c2ncnc3[nH]ccc23)C1 [Compound 94]
50 to 100	CN(c1ncc(C#N)cc1[N+](=O)[O-])[C@@H]1CCN(c2ncnc3[nH]ccc23)C1 [Compound 96]
50 to 100	CCCN(c1ccc(C#N)cn1)[C@@H]1CCN(c2ncnc3[nH]ccc23)C1 [Compound 98]
50 to 100	CN(c1ncc(C#N)cc1Br)[C@@H]1CCN(c2ncnc3[nH]ccc23)C1 [Compound 99]
50 to 100	CN(c1ccc(C#N)cc1F)[C@@H]1CCN(c2ncnc3[nH]ccc23)C1 [Compound 103, (R)-4-((1-(7H-pyrrolo[2,3-d]pyrimidin-4-yl)pyrrolidin-3-yl)(methyl)amino)-3-fluorobenzonitrile]
50 to 100	CN(c1cc(F)c(C#N)c(F)c1)[C@@H]1CCN(c2ncnc3[nH]ccc23)C1 [Compound 106]
20 to 50	CN(c1ccc(C#N)cc1C(F)(F)F)[C@@H]1CCN(c2ncnc3[nH]ccc23)C1 [Compound 109]
50 to 100	CN(c1ccc(C#N)c2ccccc12)[C@@H]1CCN(c2ncnc3[nH]ccc23)C1 [Compound 111]
20 to 50	CN(c1ccc(C#N)c(C#N)c1)[C@@H]1CCN(c2ncnc3[nH]ccc23)C1 [Compound 113]
50 to 100	CN(c1ccc(C#N)c(Br)c1)[C@@H]1CCN(c2ncnc3[nH]ccc23)C1 [Compound 114]
50 to 100	CN(c1ccc(C#N)cc1Br)[C@@H]1CCN(c2ncnc3[nH]ccc23)C1 [Compound 115]
20 to 50	CN(c1cc(F)cc(F)c1C#N)[C@@H]1CCN(c2ncnc3[nH]ccc23)C1 [Compound 118]

same assay, conditions: read-out: inhibition percentage (IR %)

Structure (SMILES)	inhibition at 0.3 µM [%]
CN(c1cc(Cl)c(C#N)cc1F)[C@@H]1CCN(c2ncnc3[nH]ccc23)C1 [Compound 110]	20 to 50
CN(c1ccc(C#N)c(Cl)c1)[C@@H]1CCN(c2ncnc3[nH]ccc23)C1 [Compound 116]	20 to 50
